# According to patent publication US20150366890A1, “COMPOSITIONS AND METHODS FOR TREATING FUNGAL INFECTIONS” (TRUSTEES OF BOSTON UNIVERSITY, priority 2013, published 2015):
# Read-outs that look alike come from different tables or passages of the source.
# Columns and labels:
# Assay type in all cases: cell-based
# [1] = test system: C. albicans wildtype and DNA repair mutants; assay: Fungicidal killing, CFU assay; conditions: C. albicans rad50/rad50 and rad52/rad52, 3 hours of drug exposure
# Description: Overnight yeast cultures were diluted into the indicated media and grown to an OD600 of 0.2, at which point the AFs were added. Colony forming units (CFU) were measured by plating six serial dilutions onto YPD agar plates.
# (§1) Overnight yeast cultures were diluted into the indicated media and grown to an OD600 of 0.2, at which point the AFs were added. Colony forming units (CFU) were measured by plating six serial dilutions onto YPD agar plates. Cells treated with MCZ were washed before serial dilution to stop growth inhibition associated with high concentrations of MCZ. CFU were counted after three days of incubation on agar plates. When indicated, thiourea (Fluka) was added 30 min prior to the addition of AFs. HPF (10 μM) (Invitrogen) and Mito Tracker (1 μM) (Invitrogen) dyes were added to PBS-washed cells at the indicated time points and incubated for 30 min prior to flow cytometry measurements, which were taken on the FACSCalibur (Becton-Dickinson). All experiments described in this section were conducted in 0.5 ml of SDC in 24-well plates incubated at 900 rpm and 37° C. for C. albicans and 30° C. and 300 rpm for S. cerevisiae. TUNEL assays were conducted as previously described (Ribeiro et al., 2006) and are described in detail in the TUNEL section of the Experimental Procedures.
# S. cerevisiae = assay: Mitochondrial activity by MitoTracker Red fluorescence
# Description: It was next sought to assess the mitochondrial activity of AF-treated fungal cells. Yhe MitoTracker Red dye, which enters the mitochondrial matrix by utilizing the proton motive force and thus labels metabolically active mitochondria in viable cells was used (Arita et al., 2006; Tomas et al., 2011). Exponential phase S. cerevisiae were incubated in glucose-free synthetic complete (SC) media for 30 min and then switched to SC containing 2% glucose or non-fermentable acetate for 1.5 hours.
# as §1
# [2] = test system: S. cerevisiae wildtype and deletion strains
Structure (SMILES),susceptibility of DSBR mutants compared to wildtype [1],"increase of MitoTracker fluorescence (S. cerevisiae; drug added to glucose-incubated (SC, 2% glucose) S. cerevisiae) [fold]",additive resistance on deleting the remaining citrate synthases in the cit3 background ([2]; S. cerevisiae CIT1/CIT2 deletions in cit3 background),"CFU (24-well colony forming assay), AF susceptibility vs wildtype ([2]; S. cerevisiae PAB103, SDH2 deletion)","CFU (24-well colony forming assay), AF susceptibility vs wildtype ([2]; S. cerevisiae PAB106, FMS1 deletion)","CFU (24-well colony forming assay), AF susceptibility vs wildtype ([2]; S. cerevisiae PAB107, NDE1 deletion)","CFU (24-well colony forming assay), AF susceptibility vs wildtype ([2]; S. cerevisiae PAB112, MNE1 deletion)","CFU (24-well colony forming assay), AF susceptibility vs wildtype ([2]; S. cerevisiae PAB113, FUM1 deletion)","CFU (24-well colony forming assay), AF susceptibility vs wildtype ([2]; S. cerevisiae PAB114, TPK2 deletion)","CFU (24-well colony forming assay), AF susceptibility vs wildtype ([2]; S. cerevisiae PAB119, CIT2 deletion)","CFU (24-well colony forming assay), AF susceptibility vs wildtype ([2]; S. cerevisiae PAB121, SDH1 deletion)","CFU (24-well colony forming assay), AF susceptibility vs wildtype ([2]; S. cerevisiae PAB122, TPK3 deletion)","CFU (24-well colony forming assay), AF susceptibility vs wildtype ([2]; S. cerevisiae PAB124, TPK1 deletion)","CFU (24-well colony forming assay), AF susceptibility vs wildtype ([2]; S. cerevisiae PAB132, CIT3 deletion)","CFU (24-well colony forming assay), AF susceptibility vs wildtype ([2]; S. cerevisiae PAB135, NDI1 deletion)","CFU (24-well colony forming assay), AF susceptibility vs wildtype ([2]; S. cerevisiae PAB145, CIT1 deletion)","CFU (24-well colony forming assay), AF susceptibility vs wildtype ([2]; S. cerevisiae PAB168, RAS1 deletion)","CFU (24-well colony forming assay), AF susceptibility vs wildtype ([2]; S. cerevisiae PAB171, RAS2 deletion)","reduction of killing at 3 hours by thiourea ([2]; S. cerevisiae, 50 mM thiourea for 30 minutes prior to the addition of AF drugs) [fold]","MitoTracker fluorescence in acetate-incubated vs glucose-incubated cells (S. cerevisiae; S. cerevisiae, SC with non-fermentable acetate, 1.5 hours)"
"Cc1cc(C2CCCCC2)n(O)c(=O)c1 [CIC, cicloplrox olamine]",particularly susceptible,10,not observed,Resistant (″Resistant″ or ″Sensitive″ indicate at least a 5-fold CFU difference from wildtype at the final time point),Normal,Resistant (″Resistant″ or ″Sensitive″ indicate at least a 5-fold CFU difference from wildtype at the final time point),Resistant (″Resistant″ or ″Sensitive″ indicate at least a 5-fold CFU difference from wildtype at the final time point),Resistant (″Resistant″ or ″Sensitive″ indicate at least a 5-fold CFU difference from wildtype at the final time point),Normal,Resistant (″Resistant″ or ″Sensitive″ indicate at least a 5-fold CFU difference from wildtype at the final time point),Resistant (″Resistant″ or ″Sensitive″ indicate at least a 5-fold CFU difference from wildtype at the final time point),Resistant (″Resistant″ or ″Sensitive″ indicate at least a 5-fold CFU difference from wildtype at the final time point),Resistant (″Resistant″ or ″Sensitive″ indicate at least a 5-fold CFU difference from wildtype at the final time point),Resistant (″Resistant″ or ″Sensitive″ indicate at least a 5-fold CFU difference from wildtype at the final time point),Resistant (″Resistant″ or ″Sensitive″ indicate at least a 5-fold CFU difference from wildtype at the final time point),Resistant (″Resistant″ or ″Sensitive″ indicate at least a 5-fold CFU difference from wildtype at the final time point),Resistant (″Resistant″ or ″Sensitive″ indicate at least a 5-fold CFU difference from wildtype at the final time point),Resistant (″Resistant″ or ″Sensitive″ indicate at least a 5-fold CFU difference from wildtype at the final time point),~15,–
CC(=O)O [acetate],–,–,–,–,–,–,–,–,–,–,–,–,–,–,–,–,–,–,–,approximately 5 fold
